Data on three compounds can be found in patent US20060030616A1, “Anhydride modified cantharidin analogues useful in the treatment of cancer” (priority 1998, published 2006).

Common to all, as to format: cell-based, human
In assay [1] the test system is HCT116 cells. In words: Cell cycle analysis, flow cytometry of propidium iodide stained cells. The conditions noted are these: for Cell Cycle Distribution, G1 / Cell Cycle Distribution, G2 + M / Cell Cycle Distribution, S / Cell Cycle Distribution, sub G1 / Cell cycle remark: 12 h; for Cell cycle response: HCT116, 12 h exposure. For orientation: Flow cytometry measures light scatter and fluorescence of single cells or particles in a stream.

Assay [2] relates to A2780 cells. In words: MTT cytotoxicity assay, 72 h. The conditions noted are these: A2780, p53 wt; read-out: IC50 (mean ± SE) after 72 h continuous exposure. The essentials: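 Cells plated (L1210 at 1000 cells/well, others 2000-25000 cells/well) and grown 24 h before 72 h exposure to phosphatase inhibitors over […], in triplicate. MTT formazan absorbance at 540 nm; IC50 is the concentration giving 50% growth inhibition from the day 0 to day 3 optical density difference.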

In assay [3] the test system is HT29 cells. In words: Combination studies, Median Effect Method (MTT). The conditions noted are these: simultaneous. The method, then: (§1) Those protein phosphatase inhibitors which show abrogation of either the G1 or G2 checkpoint will then be exploited in combination studies with either radiation exposure or chemotherapy drugs incubation. The MTT (3-[4,5-dimethylthiazol-2-yl]2,5-diphenyl-tetrazolium bromide) assay is used to determine whether a synergistic, antagonistic or additive effect is induced. The Median Effect method is adopted to mathematically determine the optimal combination index of the treatments chosen (Chou and Talalay, 1984). This method has been extensively used to investigate the cytotoxicity of various drug combinations including cisplatin and D1694 (Ackland et al 1996; 1998). A combination index value less than 1 indicates synergism, a value equal to 1 indicates additivity and a value greater than one indicates antagonism.
(§2) The cell lines listed above are exposed continuously to cisplatin and the phosphatase inhibitor in various drug ratio combinations for 72 h and then assayed for cytotoxicity; Similarly, the cells are exposed to 8 Gy of radiation and incubated with the phosphatase inhibitor and assessed for cytotoxicity at 72 h.
(§3) This method tests the cytotoxicity of various drug combinations from which a combination index can be calculated. A value of greater than one indicated antagonism, a value equal to 1 indicates additivity, while a value less than one indicates synergism. The HT29 and HCT116 cell lines were chosen as they have differing p53 status and they represent the tumour types that responded the greatest to cantharidin and its analogues.

The test system of assay [4] is HCT116 cells. In words: Combination studies, Median Effect Method (MTT). As to conditions: simultaneous. How it is done: as §1, §2, §3

In the case of `C[C@@]12C(=O)OC(=O)[C@]1(C)[C@H]1CC[C@@H]2O1` [Cantharidin, exo.exo-2.3-dimethyl-7-oxobicyclo[2.2.1]heptane-2,3-dicarboxylic acid anhydride], in assay [1] (HCT116, 1 μM), the “Cell Cycle Distribution, G1” value is on record as 39.9 percentage of total; the “Cell Cycle Distribution, G2 + M” value is given as 41.9 percentage of total; the “Cell Cycle Distribution, S” value is on record as 17.2 percentage of total; the “Cell Cycle Distribution, sub G1” value is 2.2 percentage of total. Besides, in assay [1] (HCT116, 5 μM), the “Cell Cycle Distribution, G1” value is 39.9 percentage of total; the “Cell Cycle Distribution, G2 + M” value was 41.8 percentage of total; the “Cell Cycle Distribution, S” value is reported as 16.8 percentage of total; the “Cell Cycle Distribution, sub G1” value was 2.9 percentage of total. In assay [1] (HCT116, 10 μM), the “Cell Cycle Distribution, G1” value was 38.0 percentage of total; the “Cell Cycle Distribution, G2 + M” value is listed as 42.0 percentage of total; the “Cell Cycle Distribution, S” value was 14.9 percentage of total; the “Cell Cycle Distribution, sub G1” value was 6.2 percentage of total. For the same compound, in assay [1] (HCT116, 50 μM), the “Cell Cycle Distribution, G1” value is on record as 25.1 percentage of total; the “Cell Cycle Distribution, G2 + M” value is reported as 48.1 percentage of total; the “Cell Cycle Distribution, S” value is given as 17.8 percentage of total; the “Cell Cycle Distribution, sub G1” value is reported as 11.1 percentage of total. Moreover, the Cell cycle remark entry in assay [1] (HCT116, 50 μM) is listed as “G2 arrest”. Besides, in assay [1], the “Cell cycle response” value is reported as “G2 arrest”.
By IC50 is commonly meant the concentration at which inhibition is half-maximal. Regarding `O=C1OC(=O)C2C3C=CC(O3)C12` (stereo not drawn) [MK-2], in assay [1] (HCT116, 50 μM), the “Cell Cycle Distribution, G1” value is on record as 47.2 percentage of total; the “Cell Cycle Distribution, G2 + M” value is 37.4 percentage of total; the “Cell Cycle Distribution, S” value is 13.8 percentage of total; the “Cell Cycle Distribution, sub G1” value is on record as 1.3 percentage of total. Further, in assay [1] (HCT116, 100 μM), the “Cell Cycle Distribution, G1” value is 47.2 percentage of total; the “Cell Cycle Distribution, G2 + M” value is 34.5 percentage of total; the “Cell Cycle Distribution, S” value is given as 16.0 percentage of total; the “Cell Cycle Distribution, sub G1” value is given as 1.7 percentage of total. Further, in assay [1] (HCT116, 250 μM), the “Cell Cycle Distribution, G1” value is recorded as 52.8 percentage of total; the “Cell Cycle Distribution, G2 + M” value was 34.3 percentage of total; the “Cell Cycle Distribution, S” value is given as 11.1 percentage of total; the “Cell Cycle Distribution, sub G1” value is recorded as 1.4 percentage of total. Also, in assay [1] (HCT116, 500 μM), the “Cell Cycle Distribution, G1” value is 39.4 percentage of total; the “Cell Cycle Distribution, G2 + M” value is reported as 46.5 percentage of total; the “Cell Cycle Distribution, S” value is on record as 11.3 percentage of total; the “Cell Cycle Distribution, sub G1” value is recorded as 2.5 percentage of total. For the same compound, the Cell cycle remark entry in assay [1] (HCT116, 500 μM) is listed as “G2 arrest”. The “Cell cycle response” value in assay [1] is “G2 arrest”. Besides, in assay [2], the IC50 was found to be 157 ± 9 µM.
Turning to `O=C1OC(O)C2C3CCC(O3)C12` (stereo not drawn) [MK-4], the “Cell Cycle Distribution, G1” value is given as 43.9 percentage of total in assay [1] (HCT116, 50 μM); 41.4 percentage of total in assay [1] (HCT116, 100 μM); 36.2 percentage of total in assay [1] (HCT116, 250 μM); 29.0 percentage of total in assay [1] (HCT116, 500 μM). The “Cell Cycle Distribution, G2 + M” value in assay [1] (HCT116, 50 μM) is reported as 40.7 percentage of total; in assay [1] (HCT116, 100 μM) it was 44.1 percentage of total; in assay [1] (HCT116, 250 μM), 46.9 percentage of total; in assay [1] (HCT116, 500 μM) it was 46.5 percentage of total. Further, the “Cell Cycle Distribution, S” value in assay [1] (HCT116, 50 μM) is recorded as 11.4 percentage of total; in assay [1] (HCT116, 100 μM), 13.6 percentage of total; in assay [1] (HCT116, 250 μM), 14.1 percentage of total; in assay [1] (HCT116, 500 μM), 15.7 percentage of total. The “Cell Cycle Distribution, sub G1” value in assay [1] (HCT116, 50 μM) is 4.5 percentage of total; in assay [1] (HCT116, 100 μM), 2.0 percentage of total; in assay [1] (HCT116, 250 μM), 3.9 percentage of total; in assay [1] (HCT116, 500 μM) it was 9.6 percentage of total. Besides, in assay [1] (HCT116, 500 μM), the Cell cycle remark result is reported as “G2 arrest”. For the same compound, the “Cell cycle response” value in assay [1] is on record as “G2 arrest”. Besides, the “Combination response with cisplatin” value in assay [3] (molar ratios 1:1, 10:1, 1:10) was “additive”; in assay [4] (molar ratios 1:1, 10:1, 1:10), “additive”. The “Combination response with taxotere” value in assay [3] (ratios 1:10, 1:100, 1:1000 (Taxotere: MK-4)) was “additive”; in assay [4] it was “synergistic”. For the same compound, the half-maximal inhibitory concentration (IC50) in assay [2] was found to be 333 ± 55 µM.
